Source: ChEMBL document CHEMBL1201862, “PubChem BioAssay data set” (2004)
Active and inactive are the calls of the source.

Assays:
Escherichia coli [1] = experiment: microbe, parasite or virus in culture
[2] = NIH-3T3 fibroblast cytotoxicity, dose response, cytotoxicity control, cell-based, fluorescence, Alamar Blue, secondary assay (AID 2327); type: functional;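 also: NIH-3T3 mouse fibroblasts cultured with fluconazole at 8 µg/mL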
[3] = fluconazole-exposed Candida albicans growth modulators – fluorescence, retest, confirmation (AID 2467); type: functional, cell-based
[4] = target: T1, Serine/threonine-protein phosphatase (Candida dubliniensis (strain CD36 / CBS 7987 / NCPF 3949 / NRRLY-17841) (Yeast), UniProt B9W6M3); experiment: blockers of CaCl2-induced CDRE-lacZ signaling – S. cerevisiae, luminescence, secondary, dose response (AID 2388); type: functional, cell-based;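 also: yeast reporter cells carrying a calcineurin-responsive lacZ construct stimulated with calcium chloride; luminescent beta-galactosidase reporter signal in whole cells rather than isolated phosphatase activity; potency for inhibition where a drop in reporter signal means calcineurin blockade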
T1 sequence (B9W6M3 whole entry): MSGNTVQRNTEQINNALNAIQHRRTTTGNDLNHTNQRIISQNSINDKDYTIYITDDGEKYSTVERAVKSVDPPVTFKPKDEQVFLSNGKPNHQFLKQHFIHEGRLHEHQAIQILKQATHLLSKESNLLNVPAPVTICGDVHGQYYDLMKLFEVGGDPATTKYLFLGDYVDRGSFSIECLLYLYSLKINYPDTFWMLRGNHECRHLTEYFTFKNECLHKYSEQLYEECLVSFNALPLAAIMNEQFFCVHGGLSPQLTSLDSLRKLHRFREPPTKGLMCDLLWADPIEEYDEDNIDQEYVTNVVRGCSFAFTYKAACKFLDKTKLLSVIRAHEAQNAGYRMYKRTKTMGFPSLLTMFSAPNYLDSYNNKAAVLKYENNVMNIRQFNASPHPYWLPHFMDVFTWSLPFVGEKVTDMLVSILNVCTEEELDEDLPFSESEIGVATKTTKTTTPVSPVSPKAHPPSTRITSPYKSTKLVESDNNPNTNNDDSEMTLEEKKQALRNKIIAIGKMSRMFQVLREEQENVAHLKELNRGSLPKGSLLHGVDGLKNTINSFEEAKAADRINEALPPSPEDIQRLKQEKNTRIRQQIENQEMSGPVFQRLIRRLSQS

[5] = target: ATP-dependent molecular chaperone HSP82 (Candida albicans (strain WO-1) (Yeast), UniProt C4YTQ8); experiment: steroid-induced GRE reporter decrease in yeast – S. cerevisiae, luminescence, Hsp90 inhibitor project, dose response (AID 2400); type: functional, cell-based;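 also: beta-galactosidase luminescence from glucocorticoid response element reporter as proxy for Hsp90 function; inhibitor potency where signal loss means Hsp90 inhibition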
ATP-dependent molecular chaperone HSP82, sequence (C4YTQ8 whole entry): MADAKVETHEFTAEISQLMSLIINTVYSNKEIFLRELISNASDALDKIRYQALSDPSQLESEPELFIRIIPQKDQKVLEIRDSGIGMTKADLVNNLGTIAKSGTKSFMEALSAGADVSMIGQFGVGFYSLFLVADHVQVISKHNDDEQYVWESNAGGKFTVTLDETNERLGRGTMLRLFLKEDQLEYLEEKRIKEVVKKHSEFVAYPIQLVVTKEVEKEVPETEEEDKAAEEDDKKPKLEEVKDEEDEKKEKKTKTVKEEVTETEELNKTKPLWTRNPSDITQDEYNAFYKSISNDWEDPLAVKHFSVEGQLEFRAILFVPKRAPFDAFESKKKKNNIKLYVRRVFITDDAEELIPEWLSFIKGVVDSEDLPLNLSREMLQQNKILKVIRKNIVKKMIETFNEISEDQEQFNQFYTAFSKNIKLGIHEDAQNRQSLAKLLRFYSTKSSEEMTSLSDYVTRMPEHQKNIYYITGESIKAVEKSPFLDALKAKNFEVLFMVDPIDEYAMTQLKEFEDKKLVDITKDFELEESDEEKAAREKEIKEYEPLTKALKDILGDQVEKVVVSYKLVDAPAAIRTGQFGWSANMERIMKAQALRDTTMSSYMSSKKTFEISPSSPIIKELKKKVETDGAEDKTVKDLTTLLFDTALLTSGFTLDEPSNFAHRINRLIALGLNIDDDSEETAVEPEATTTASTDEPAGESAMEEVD

Escherichia coli [6] = experiment: microbe, parasite or virus in culture; remark: listed apart in the source
Leucine aminopeptidase = target: T2, Leucine aminopeptidase (Plasmodium falciparum 3D7, UniProt Q8IL11); experiment: P. falciparum M17LAP inhibitors, primary screen, biochemical, fluorogenic H-Leu-NHMec substrate, 1536-well (AID 1619); type: functional
T2 sequence (Q8IL11 whole entry): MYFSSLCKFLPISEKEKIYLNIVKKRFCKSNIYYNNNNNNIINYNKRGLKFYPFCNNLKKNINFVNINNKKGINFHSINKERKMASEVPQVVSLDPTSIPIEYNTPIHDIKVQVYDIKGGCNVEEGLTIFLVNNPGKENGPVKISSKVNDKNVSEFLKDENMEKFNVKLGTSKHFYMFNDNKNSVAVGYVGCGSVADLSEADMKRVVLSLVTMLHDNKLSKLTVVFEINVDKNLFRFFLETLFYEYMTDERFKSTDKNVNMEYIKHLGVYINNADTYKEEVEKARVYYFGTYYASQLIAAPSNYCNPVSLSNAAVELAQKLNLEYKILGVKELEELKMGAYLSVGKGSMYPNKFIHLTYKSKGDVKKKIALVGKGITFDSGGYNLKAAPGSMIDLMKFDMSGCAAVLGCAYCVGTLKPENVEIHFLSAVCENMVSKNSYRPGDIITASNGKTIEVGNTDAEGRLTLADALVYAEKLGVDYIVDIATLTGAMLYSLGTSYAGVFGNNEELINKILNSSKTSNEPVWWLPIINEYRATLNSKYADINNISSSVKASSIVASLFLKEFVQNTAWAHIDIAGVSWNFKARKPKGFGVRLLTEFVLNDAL

[7] = target: T3, Heat shock factor protein 1 (Mus musculus, UniProt P38532); experiment: decrease of HSF1-responsive luciferase luminescence – cell-based, NIH3T3, dose retest, confirmation (AID 2382); type: functional;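 also: NIH3T3 fibroblasts with HSF1-driven luciferase reporter stressed by proteasome inhibitor MG132; luminescence from HSF1-driven luciferase expression after 8 hours of MG132 stress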
T3 sequence (P38532 whole entry): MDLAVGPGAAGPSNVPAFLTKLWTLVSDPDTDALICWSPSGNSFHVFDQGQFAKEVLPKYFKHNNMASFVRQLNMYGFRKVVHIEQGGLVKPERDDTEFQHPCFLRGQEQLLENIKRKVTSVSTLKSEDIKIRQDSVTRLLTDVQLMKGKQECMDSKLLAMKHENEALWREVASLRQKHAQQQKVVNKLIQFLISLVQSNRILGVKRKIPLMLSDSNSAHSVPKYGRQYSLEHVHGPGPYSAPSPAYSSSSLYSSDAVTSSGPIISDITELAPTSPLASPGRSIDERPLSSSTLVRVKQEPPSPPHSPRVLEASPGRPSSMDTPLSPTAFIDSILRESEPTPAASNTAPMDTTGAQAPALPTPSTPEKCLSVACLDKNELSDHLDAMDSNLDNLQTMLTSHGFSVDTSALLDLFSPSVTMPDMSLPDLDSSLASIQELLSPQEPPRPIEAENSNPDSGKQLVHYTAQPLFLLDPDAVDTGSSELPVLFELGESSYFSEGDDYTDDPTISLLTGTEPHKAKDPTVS

[8] = target: T4, Microphthalmia-associated transcription factor (Homo sapiens, UniProt O75030); experiment: reducers of TRPM1 reporter luminescence, concentration series – cell-based, SK-MEL-5, cherry-picked, set 3, MITF inhibitor project, dose response (AID 493073); type: functional;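 also: SK-MEL-5 melanoma cells with luciferase driven by the MITF target TRPM1 promoter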
T4 sequence (O75030 whole entry): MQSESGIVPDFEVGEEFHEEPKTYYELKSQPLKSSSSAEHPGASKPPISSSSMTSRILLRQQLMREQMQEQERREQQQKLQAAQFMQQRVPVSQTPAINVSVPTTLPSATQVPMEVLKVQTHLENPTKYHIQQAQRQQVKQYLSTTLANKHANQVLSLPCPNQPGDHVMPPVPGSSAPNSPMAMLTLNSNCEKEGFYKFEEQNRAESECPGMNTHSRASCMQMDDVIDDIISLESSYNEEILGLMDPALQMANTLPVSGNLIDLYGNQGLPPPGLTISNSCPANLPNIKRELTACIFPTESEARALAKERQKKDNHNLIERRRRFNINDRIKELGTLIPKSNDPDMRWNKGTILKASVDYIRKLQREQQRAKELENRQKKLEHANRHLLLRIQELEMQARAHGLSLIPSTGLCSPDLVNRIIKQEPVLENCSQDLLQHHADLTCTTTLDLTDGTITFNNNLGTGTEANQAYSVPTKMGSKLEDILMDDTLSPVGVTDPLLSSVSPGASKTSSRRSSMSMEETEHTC

[9] = target: T5, Luciferin 4-monooxygenase (Photuris pensylvanica, UniProt Q27757); experiment: inhibition of Cell Titer Glo luciferase signal – biochemical, luminescence, cherry-picks, counter-screen for HSF-1 reporter inhibitor project, dose response (AID 588847)
T5 sequence (Q27757 whole entry): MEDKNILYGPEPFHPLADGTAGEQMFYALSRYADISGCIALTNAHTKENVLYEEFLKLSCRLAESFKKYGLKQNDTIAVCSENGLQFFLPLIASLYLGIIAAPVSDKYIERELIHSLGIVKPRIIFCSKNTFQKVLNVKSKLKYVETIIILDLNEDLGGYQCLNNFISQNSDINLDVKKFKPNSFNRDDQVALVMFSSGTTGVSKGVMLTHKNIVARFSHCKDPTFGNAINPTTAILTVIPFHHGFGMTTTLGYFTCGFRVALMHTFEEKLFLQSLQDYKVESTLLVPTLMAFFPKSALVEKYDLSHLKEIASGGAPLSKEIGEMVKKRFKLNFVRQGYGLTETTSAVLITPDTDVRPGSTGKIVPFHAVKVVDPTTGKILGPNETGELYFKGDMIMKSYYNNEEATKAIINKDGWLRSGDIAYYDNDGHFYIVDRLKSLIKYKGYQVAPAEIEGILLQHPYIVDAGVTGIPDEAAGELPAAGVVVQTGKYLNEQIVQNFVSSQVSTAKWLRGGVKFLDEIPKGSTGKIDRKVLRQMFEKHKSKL

[10] = target: T6, Long-chain-fatty-acid--AMP ligase FadD28 (Mycobacterium tuberculosis, UniProt P9WQ59); experiment: Fluorescence polarization aasay to screen for inhibitors that compete for the binding of FadD28 to a bisubstrate Measured in Biochemical System Using Plate Reader - 2147-01_Inhibitor_Dose_CherryPick_Activity.; type: functional, Mycobacterium tuberculosis H37Rv
T6 sequence (P9WQ59 whole entry): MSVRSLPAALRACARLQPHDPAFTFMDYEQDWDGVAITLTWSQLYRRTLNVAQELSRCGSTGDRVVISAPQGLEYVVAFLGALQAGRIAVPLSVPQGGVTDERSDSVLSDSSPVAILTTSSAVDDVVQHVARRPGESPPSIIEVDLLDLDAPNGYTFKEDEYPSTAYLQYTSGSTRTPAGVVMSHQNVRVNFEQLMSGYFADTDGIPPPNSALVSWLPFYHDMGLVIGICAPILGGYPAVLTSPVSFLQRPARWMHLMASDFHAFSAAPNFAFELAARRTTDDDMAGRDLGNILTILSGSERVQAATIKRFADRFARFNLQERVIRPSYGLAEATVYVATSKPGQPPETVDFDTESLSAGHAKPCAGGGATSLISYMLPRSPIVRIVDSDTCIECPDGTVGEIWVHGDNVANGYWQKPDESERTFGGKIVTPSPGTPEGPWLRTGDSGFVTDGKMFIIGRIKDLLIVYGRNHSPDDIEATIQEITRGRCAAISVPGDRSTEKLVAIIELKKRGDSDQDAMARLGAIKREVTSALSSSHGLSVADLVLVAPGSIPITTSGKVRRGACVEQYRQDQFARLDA

[11] = target: T7, Rac GTPase-activating protein 1 (Homo sapiens, UniProt Q9H0H5); experiment: blockers of MgcRacGAP-driven Rac1 GTP hydrolysis – biochemical, ADP Hunter fluorescence, primary and confirmatory, confirmation (AID 624330); type: functional
T7 sequence (Q9H0H5 whole entry): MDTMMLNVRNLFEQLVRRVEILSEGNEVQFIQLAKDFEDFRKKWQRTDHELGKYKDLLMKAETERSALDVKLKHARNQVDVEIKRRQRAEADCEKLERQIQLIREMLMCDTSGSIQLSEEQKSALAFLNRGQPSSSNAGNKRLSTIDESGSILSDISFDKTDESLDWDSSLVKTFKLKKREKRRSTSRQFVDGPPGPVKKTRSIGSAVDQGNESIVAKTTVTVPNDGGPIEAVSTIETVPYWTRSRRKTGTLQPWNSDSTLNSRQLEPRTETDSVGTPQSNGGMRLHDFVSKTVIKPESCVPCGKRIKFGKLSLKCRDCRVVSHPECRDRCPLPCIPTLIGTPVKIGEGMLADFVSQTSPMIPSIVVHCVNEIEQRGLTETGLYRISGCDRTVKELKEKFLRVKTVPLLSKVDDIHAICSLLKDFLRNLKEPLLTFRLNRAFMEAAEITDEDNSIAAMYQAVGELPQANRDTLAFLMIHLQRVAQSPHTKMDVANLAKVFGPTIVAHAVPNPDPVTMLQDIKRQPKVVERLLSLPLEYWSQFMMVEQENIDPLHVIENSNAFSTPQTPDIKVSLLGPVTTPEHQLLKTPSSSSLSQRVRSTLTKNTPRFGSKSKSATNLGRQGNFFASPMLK

Which AC50 (Escherichia coli [1]) does the source give for `Cn1c(=O)oc2cc(S(=O)(=O)NCCN3CCCCCC3)ccc21` here?
Its AC50 is 24.2 µM (active).

With `N=C(Cc1ccccc1)NOC(=O)c1cccc2ccccc12` as the molecule, how does the EC50 [2] read?
Its EC50 is 19.3 µM (active).

What about the EC50 [3] of the same molecule?
The EC50 was 0.717 µM (active).

What about the EC50 [4] of the same molecule?
The EC50 was > 180 µM (inactive).

And the EC50 [5]?
Its EC50 is 14 µM (active).

With `c1coc(CN2CNc3nc4ccccc4n3C2)c1` as the molecule, how does the AC50 (Escherichia coli [1]) read?
The AC50 was 79.4 µM (active).

And the AC50 (Escherichia coli [6])?
Its AC50 is 101 µM (active).

For `CC(C)(C)OC(=O)NCCCCCNC(=O)c1[nH]cnc1C(=O)NC1CCN(C(=O)OC(C)(C)C)CC1`, which AC50 (Escherichia coli [6]) is on record?
Its AC50 is 235 µM (active).

Which results are given for `Cc1ccc(CNC(=O)COC(=O)c2cccnc2Cl)cc1`?
AC50 (Escherichia coli [1]): 29.3 µM (active); AC50 (Escherichia coli [6]): 73.1 µM (active)

What does the source list for `Cc1ccc(/C=N/Nc2ccc(C(=O)O)cc2)s1`?
IC50 (Leucine aminopeptidase): 20.4 µM (active); EC50 [7]: < 0.16 µM (active); AC50 [8]: 3.3 µM (active); AC50 [9]: 0.721 µM (active); AC50 [10]: 37.8 µM (active); IC50 [11]: 89.2 µM (active)

For `CCC(=O)O[C@]1(C(=O)CCl)[C@@H](C)C[C@H]2[C@@H]3CCC4=CC(=O)C=C[C@]4(C)[C@@]3(F)[C@@H](O)C[C@@]21C` [CLOBETASOL PROPIONATE], which AC50 [9] is on record?
The AC50 was > 52 µM (inactive).
